Measured values taken from the kinase profiling compilation of Christmann-Franck et al. (2016).

Legend:
Experiment in all cases: KINOMEscan competition binding
[1] = target: FLT3 (human) (UniProt P36888)
[2] = target: RIPK1 (human) (UniProt Q13546)
[3] = target: MAP2K1 (human) (UniProt Q02750)
[4] = target: PRKD3 (human) (UniProt O94806)
[5] = target: PHKG2 (human) (UniProt P15735)
[6] = target: SGK3 (human) (UniProt Q96BR1)
[7] = test system: FLT3 (human), P36888 [R834Q]
[8] = test system: PIK3CA (human), P42336 [Q546K]
[9] = target: CDC42BPB (human) (UniProt Q9Y5S2)
[10] = target: RPS6KA4 KD1 (human) (UniProt O75676)
[11] = target: PKN1 (human) (UniProt Q16512)
[12] = target: RPS6KA2 KD2 (human) (UniProt Q15349)
[13] = target: CHEK1 (human) (UniProt O14757)
[14] = target: TYK2 JH2 pseudokinase (human) (UniProt P29597)
[15] = target: PHKG1 (human) (UniProt Q16816)
[16] = target: CSNK1G1 (human) (UniProt Q9HCP0)
[17] = target: RPS6KA6 KD1 (human) (UniProt Q9UK32)
[18] = target: CDC42BPA (human) (UniProt Q5VT25)
[19] = target: TGFBR1 (human) (UniProt P36897)
[20] = target: ACVR1B (human) (UniProt P36896)
[21] = test system: RET (human), P07949 [M918T]
[22] = target: MAK (human) (UniProt P20794)
[23] = target: CASK (human) (UniProt O14936)
[24] = target: CSF1R (human) (UniProt P07333)
[25] = target: PAK3 (human) (UniProt O75914)
[26] = target: BRSK2 (human) (UniProt Q8IWQ3)
[27] = target: CHEK2 (human) (UniProt O96017)
[28] = target: DCLK1 (human) (UniProt O15075)
[29] = target: CSNK1G3 (human) (UniProt Q9Y6M4)
[30] = target: MAPK6 (human) (UniProt Q16659)
[31] = target: DSTYK (human) (UniProt Q6XUX3)
[32] = target: INSRR (human) (UniProt P14616)
[33] = target: LTK (human) (UniProt P29376)
[34] = target: CLK4 (human) (UniProt Q9HAZ1)
[35] = target: IKBKB (human) (UniProt O14920)
[36] = target: MYO3A (human) (UniProt Q8NEV4)
[37] = target: HIPK3 (human) (UniProt Q9H422)
[38] = test system: KIT (human), P10721 [V559D/T670I]
[39] = target: STK25 (human) (UniProt O00506)
[40] = target: PRKD1 (human) (UniProt Q15139)
[41] = target: STK3 (human) (UniProt Q13188)
[42] = target: STK32B (human) (UniProt Q9NY57)

PRKD3 (human), sequence (O94806 whole entry, looked up): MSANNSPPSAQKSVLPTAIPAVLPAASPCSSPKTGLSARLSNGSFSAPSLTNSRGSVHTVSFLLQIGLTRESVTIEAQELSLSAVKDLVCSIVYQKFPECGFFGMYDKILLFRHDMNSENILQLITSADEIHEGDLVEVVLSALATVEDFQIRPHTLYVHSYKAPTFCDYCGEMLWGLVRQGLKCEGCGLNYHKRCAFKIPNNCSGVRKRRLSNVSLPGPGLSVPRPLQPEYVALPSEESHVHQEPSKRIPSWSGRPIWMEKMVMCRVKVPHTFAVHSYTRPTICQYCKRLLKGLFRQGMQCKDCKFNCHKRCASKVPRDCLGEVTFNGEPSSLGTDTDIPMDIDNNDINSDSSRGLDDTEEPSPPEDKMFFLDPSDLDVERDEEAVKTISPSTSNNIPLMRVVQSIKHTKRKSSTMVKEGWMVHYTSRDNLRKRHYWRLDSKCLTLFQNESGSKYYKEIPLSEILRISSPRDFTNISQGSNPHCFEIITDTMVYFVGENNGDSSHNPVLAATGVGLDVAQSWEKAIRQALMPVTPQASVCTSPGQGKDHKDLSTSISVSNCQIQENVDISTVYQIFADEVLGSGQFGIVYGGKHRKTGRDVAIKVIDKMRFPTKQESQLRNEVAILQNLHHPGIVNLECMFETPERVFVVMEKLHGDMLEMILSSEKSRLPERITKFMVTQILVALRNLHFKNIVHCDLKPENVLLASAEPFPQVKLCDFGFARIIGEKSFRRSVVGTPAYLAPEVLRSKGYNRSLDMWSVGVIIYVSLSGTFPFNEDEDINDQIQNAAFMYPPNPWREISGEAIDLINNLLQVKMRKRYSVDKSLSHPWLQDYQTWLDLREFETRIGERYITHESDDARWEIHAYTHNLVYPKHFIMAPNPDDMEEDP
RIPK1 (human), sequence (Q13546 whole entry, looked up): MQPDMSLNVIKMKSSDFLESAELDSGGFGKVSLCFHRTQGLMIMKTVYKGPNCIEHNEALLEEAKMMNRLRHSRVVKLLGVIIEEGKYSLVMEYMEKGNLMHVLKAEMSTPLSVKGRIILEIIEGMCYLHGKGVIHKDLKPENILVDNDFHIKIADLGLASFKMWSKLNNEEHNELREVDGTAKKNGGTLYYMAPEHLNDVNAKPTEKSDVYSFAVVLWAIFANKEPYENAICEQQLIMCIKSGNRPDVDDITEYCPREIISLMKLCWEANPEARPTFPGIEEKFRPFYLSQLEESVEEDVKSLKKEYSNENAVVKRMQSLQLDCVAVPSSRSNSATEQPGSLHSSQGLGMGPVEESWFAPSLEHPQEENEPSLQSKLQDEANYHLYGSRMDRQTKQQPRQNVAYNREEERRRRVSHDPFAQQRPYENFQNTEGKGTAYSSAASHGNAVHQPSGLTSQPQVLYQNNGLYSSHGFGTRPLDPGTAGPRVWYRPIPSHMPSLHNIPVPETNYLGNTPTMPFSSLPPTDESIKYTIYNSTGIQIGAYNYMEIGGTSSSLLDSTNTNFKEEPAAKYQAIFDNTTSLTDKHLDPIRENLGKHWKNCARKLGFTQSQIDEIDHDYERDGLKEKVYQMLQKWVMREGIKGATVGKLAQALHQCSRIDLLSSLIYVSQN
CSNK1G1 (human), sequence (Q9HCP0 whole entry, looked up): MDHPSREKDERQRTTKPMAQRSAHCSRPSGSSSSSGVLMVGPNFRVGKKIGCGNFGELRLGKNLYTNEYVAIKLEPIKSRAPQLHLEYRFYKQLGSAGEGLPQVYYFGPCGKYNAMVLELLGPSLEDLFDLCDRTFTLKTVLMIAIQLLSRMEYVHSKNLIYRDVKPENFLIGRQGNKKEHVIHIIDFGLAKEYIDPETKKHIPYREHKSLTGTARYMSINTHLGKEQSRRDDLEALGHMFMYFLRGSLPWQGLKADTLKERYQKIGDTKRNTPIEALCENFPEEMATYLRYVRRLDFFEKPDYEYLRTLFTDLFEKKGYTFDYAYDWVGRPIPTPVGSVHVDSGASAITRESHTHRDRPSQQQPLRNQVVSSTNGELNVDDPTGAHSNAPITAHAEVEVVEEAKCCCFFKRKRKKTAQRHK
PKN1 (human), sequence (Q16512 whole entry, looked up): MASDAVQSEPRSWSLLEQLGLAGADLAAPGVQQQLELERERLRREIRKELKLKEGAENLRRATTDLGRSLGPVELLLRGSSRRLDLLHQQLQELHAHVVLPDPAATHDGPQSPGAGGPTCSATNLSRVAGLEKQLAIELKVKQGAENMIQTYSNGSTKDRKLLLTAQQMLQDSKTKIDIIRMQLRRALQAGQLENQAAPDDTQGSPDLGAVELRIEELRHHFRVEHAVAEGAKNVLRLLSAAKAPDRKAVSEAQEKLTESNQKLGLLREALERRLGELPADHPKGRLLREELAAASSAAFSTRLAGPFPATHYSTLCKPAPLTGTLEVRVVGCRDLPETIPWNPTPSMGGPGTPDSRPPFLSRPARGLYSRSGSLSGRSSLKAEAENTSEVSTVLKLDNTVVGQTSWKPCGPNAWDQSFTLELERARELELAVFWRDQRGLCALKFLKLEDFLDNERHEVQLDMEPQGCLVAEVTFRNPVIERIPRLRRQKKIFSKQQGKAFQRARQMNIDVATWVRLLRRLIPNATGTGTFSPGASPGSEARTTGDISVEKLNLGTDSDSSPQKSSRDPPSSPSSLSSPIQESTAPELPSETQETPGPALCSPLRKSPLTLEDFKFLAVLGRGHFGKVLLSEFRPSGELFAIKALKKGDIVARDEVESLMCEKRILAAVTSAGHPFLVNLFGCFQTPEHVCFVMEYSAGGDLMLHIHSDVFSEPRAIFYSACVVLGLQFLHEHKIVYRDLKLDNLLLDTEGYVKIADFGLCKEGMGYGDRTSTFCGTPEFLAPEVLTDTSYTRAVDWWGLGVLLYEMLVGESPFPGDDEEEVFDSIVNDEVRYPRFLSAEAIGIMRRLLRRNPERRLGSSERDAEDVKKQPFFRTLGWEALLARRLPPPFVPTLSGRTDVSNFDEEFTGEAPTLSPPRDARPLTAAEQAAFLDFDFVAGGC
BRSK2 (human), sequence (Q8IWQ3 whole entry, looked up): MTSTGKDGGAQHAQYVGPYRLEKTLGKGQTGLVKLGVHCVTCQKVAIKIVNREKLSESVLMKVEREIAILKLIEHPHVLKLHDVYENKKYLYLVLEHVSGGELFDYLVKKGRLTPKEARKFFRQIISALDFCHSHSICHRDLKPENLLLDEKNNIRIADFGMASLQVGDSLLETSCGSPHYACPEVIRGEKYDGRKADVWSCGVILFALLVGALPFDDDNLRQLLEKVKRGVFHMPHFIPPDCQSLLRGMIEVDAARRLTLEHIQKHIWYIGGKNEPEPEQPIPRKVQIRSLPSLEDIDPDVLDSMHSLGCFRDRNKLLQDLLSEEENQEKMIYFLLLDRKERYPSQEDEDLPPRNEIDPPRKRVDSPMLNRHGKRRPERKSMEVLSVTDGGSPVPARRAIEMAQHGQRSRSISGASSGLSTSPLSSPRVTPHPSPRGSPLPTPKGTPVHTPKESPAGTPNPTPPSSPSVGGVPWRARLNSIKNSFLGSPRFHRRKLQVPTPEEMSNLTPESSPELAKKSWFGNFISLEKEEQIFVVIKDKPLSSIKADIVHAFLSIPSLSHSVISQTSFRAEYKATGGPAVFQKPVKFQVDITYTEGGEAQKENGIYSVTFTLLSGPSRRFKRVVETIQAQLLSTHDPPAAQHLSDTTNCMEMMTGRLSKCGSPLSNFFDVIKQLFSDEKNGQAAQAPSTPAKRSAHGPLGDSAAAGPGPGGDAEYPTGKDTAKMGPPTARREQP
SGK3 (human), sequence (Q96BR1 whole entry, looked up): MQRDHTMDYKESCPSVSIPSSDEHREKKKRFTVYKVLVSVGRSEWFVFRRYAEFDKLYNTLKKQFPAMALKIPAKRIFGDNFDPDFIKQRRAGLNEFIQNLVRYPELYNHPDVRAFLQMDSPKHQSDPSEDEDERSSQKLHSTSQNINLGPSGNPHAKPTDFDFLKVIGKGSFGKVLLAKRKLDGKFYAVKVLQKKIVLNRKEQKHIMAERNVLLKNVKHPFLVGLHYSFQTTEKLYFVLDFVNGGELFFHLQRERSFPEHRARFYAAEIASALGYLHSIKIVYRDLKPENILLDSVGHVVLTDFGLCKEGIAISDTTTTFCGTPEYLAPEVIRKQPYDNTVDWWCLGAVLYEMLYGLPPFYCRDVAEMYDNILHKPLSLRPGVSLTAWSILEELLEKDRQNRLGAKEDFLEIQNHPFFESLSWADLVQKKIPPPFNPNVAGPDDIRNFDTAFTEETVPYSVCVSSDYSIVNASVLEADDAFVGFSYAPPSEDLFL
CHEK2 (human), sequence (O96017 whole entry, looked up): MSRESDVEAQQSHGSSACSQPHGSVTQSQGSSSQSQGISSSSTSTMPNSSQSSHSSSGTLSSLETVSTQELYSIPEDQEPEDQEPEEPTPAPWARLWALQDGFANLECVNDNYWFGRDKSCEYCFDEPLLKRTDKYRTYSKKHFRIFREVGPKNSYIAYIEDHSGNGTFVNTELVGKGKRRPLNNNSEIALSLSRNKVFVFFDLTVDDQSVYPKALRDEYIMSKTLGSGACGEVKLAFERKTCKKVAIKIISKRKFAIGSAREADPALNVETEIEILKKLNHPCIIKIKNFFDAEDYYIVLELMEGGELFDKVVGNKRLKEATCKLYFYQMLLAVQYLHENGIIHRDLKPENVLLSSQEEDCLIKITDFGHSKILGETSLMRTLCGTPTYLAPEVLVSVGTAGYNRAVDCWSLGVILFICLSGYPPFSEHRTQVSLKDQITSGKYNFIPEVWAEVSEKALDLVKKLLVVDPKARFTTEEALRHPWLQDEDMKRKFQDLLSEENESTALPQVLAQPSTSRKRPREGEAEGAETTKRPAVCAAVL

With Cc1ccc(NC(=O)c2ccc(NC(=O)/C=C/CN(C)C)cc2)cc1Nc1nccc(-c2cccnc2)n1 the kinase still bound, per cent of control ([1]; compound 10.0 µM) was 75%, the kinase still bound, per cent of control ([2]; compound 10.0 µM) was 56% and the kinase still bound, per cent of control ([3]; compound 10.0 µM) was 95%. It also gave a kinase still bound, per cent of control ([4]; compound 10.0 µM) of 100%, a kinase still bound, per cent of control ([5]; compound 10.0 µM) of 86% and a kinase still bound, per cent of control ([6]; compound 10.0 µM) of 99%. For the same compound, the kinase still bound, per cent of control ([7]; compound 10.0 µM) was 56%, the kinase still bound, per cent of control ([8]; compound 10.0 µM) was 94% and the kinase still bound, per cent of control ([9]; compound 10.0 µM) was 78%. It also gave a kinase still bound, per cent of control ([10]; compound 10.0 µM) of 100%, a kinase still bound, per cent of control ([11]; compound 10.0 µM) of 100% and a kinase still bound, per cent of control ([12]; compound 10.0 µM) of 86%. It also gave a kinase still bound, per cent of control ([13]; compound 10.0 µM) of 100%, a kinase still bound, per cent of control ([14]; compound 10.0 µM) of 14% and a kinase still bound, per cent of control ([15]; compound 10.0 µM) of 87%. For the same compound, the kinase still bound, per cent of control ([16]; compound 10.0 µM) was 85%, the kinase still bound, per cent of control ([17]; compound 10.0 µM) was 50% and the kinase still bound, per cent of control ([18]; compound 10.0 µM) was 83%. The kinase still bound, per cent of control ([19]; compound 10.0 µM) was 100%, the kinase still bound, per cent of control ([20]; compound 10.0 µM) was 70% and the kinase still bound, per cent of control ([21]; compound 10.0 µM) was 81%. The kinase still bound, per cent of control ([22]; compound 10.0 µM) was 100%, the kinase still bound, per cent of control ([23]; compound 10.0 µM) was 79% and the kinase still bound, per cent of control ([24]; compound 10.0 µM) was 9.2%. For the same compound, the kinase still bound, per cent of control ([25]; compound 10.0 µM) was 68%, the kinase still bound, per cent of control ([26]; compound 10.0 µM) was 88% and the kinase still bound, per cent of control ([27]; compound 10.0 µM) was 94%. It also gave a kinase still bound, per cent of control ([28]; compound 10.0 µM) of 84%, a kinase still bound, per cent of control ([29]; compound 10.0 µM) of 71% and a kinase still bound, per cent of control ([30]; compound 10.0 µM) of 85%. For the same compound, the kinase still bound, per cent of control ([31]; compound 10.0 µM) was 81%, the kinase still bound, per cent of control ([32]; compound 10.0 µM) was 100% and the kinase still bound, per cent of control ([33]; compound 10.0 µM) was 100%. For the same compound, the kinase still bound, per cent of control ([34]; compound 10.0 µM) was 6.2%, the kinase still bound, per cent of control ([35]; compound 10.0 µM) was 70% and the kinase still bound, per cent of control ([36]; compound 10.0 µM) was 100%. It also gave a kinase still bound, per cent of control ([37]; compound 10.0 µM) of 35%, a kinase still bound, per cent of control ([38]; compound 10.0 µM) of 18% and a kinase still bound, per cent of control ([39]; compound 10.0 µM) of 100%. For the same compound, the kinase still bound, per cent of control ([40]; compound 10.0 µM) was 100%, the kinase still bound, per cent of control ([41]; compound 10.0 µM) was 100% and the kinase still bound, per cent of control ([42]; compound 10.0 µM) was 100%.

Compound CN(C)C/C=C/C(=O)Nc1cccc(C(=O)Nc2ccc(Nc3nccc(-c4c(-c5ccccc5)nn5ccccc45)n3)cc2)c1 has a kinase still bound, per cent of control ([1]; compound 1.0 µM) of 1%, a kinase still bound, per cent of control ([2]; compound 1.0 µM) of 73% and a kinase still bound, per cent of control ([3]; compound 1.0 µM) of 100%. For the same compound, the Kd [4] was 0.24 µM, the kinase still bound, per cent of control ([4]; compound 1.0 µM) was 0% and the kinase still bound, per cent of control ([5]; compound 1.0 µM) was 100%. For the same compound, the kinase still bound, per cent of control ([6]; compound 1.0 µM) was 91%, the kinase still bound, per cent of control ([7]; compound 1.0 µM) was 68% and the kinase still bound, per cent of control ([8]; compound 1.0 µM) was 100%. It also gave a kinase still bound, per cent of control ([9]; compound 1.0 µM) of 16%, a kinase still bound, per cent of control ([10]; compound 1.0 µM) of 88% and a kinase still bound, per cent of control ([11]; compound 1.0 µM) of 100%. For the same compound, the kinase still bound, per cent of control ([12]; compound 1.0 µM) was 82%, the kinase still bound, per cent of control ([13]; compound 1.0 µM) was 100% and the kinase still bound, per cent of control ([14]; compound 1.0 µM) was 100%. It also gave a kinase still bound, per cent of control ([15]; compound 1.0 µM) of 100%, a kinase still bound, per cent of control ([16]; compound 1.0 µM) of 39% and a kinase still bound, per cent of control ([17]; compound 1.0 µM) of 91%. The kinase still bound, per cent of control ([18]; compound 1.0 µM) was 13%, the kinase still bound, per cent of control ([19]; compound 1.0 µM) was 12% and the kinase still bound, per cent of control ([20]; compound 1.0 µM) was 8.4%. The kinase still bound, per cent of control ([21]; compound 1.0 µM) was 10%, the kinase still bound, per cent of control ([22]; compound 1.0 µM) was 100% and the kinase still bound, per cent of control ([23]; compound 1.0 µM) was 52%. It also gave a kinase still bound, per cent of control ([24]; compound 1.0 µM) of 6%, a kinase still bound, per cent of control ([25]; compound 1.0 µM) of 52% and a kinase still bound, per cent of control ([26]; compound 1.0 µM) of 100%. For the same compound, the kinase still bound, per cent of control ([27]; compound 1.0 µM) was 100%, the kinase still bound, per cent of control ([28]; compound 1.0 µM) was 93% and the kinase still bound, per cent of control ([29]; compound 1.0 µM) was 1.2%. The kinase still bound, per cent of control ([30]; compound 1.0 µM) was 71%, the kinase still bound, per cent of control ([31]; compound 1.0 µM) was 80% and the kinase still bound, per cent of control ([32]; compound 1.0 µM) was 97%. It also gave a kinase still bound, per cent of control ([33]; compound 1.0 µM) of 83%, a kinase still bound, per cent of control ([34]; compound 1.0 µM) of 100% and a kinase still bound, per cent of control ([35]; compound 1.0 µM) of 84%. The kinase still bound, per cent of control ([36]; compound 1.0 µM) was 100%, the kinase still bound, per cent of control ([37]; compound 1.0 µM) was 100% and the kinase still bound, per cent of control ([38]; compound 1.0 µM) was 4%. It also gave a kinase still bound, per cent of control ([39]; compound 1.0 µM) of 100%, a kinase still bound, per cent of control ([40]; compound 1.0 µM) of 20% and a kinase still bound, per cent of control ([41]; compound 1.0 µM) of 99%. For the same compound, the kinase still bound, per cent of control ([42]; compound 1.0 µM) was 30%.
